Entries after “also recorded” stand apart in the source; their conditions may differ.
What was measured:
[1] = test system: S. aureus SA113 (ATCC 35556); experiment: Bacterial growth (A578) and biofilm formation (crystal violet, A595) in 96-well polystyrene microtiter plates; type: cell-based, Staphylococcus aureus; conditions: for Biofilm (%) / Growth (%): 6 hours after seeding, control = 100%, mean ± SD
Method: (§1) An overnight bacterial culture was 200-fold diluted with TSBg, and a 200 μL aliquot of the diluted culture was seeded into each well of 96-well polystyrene microtiter plates and incubated at 37° C. for a designated period of time. Cell growth was determined by measuring the absorbance at 578 nm (A578) with a microtiter plate reader (SpectraMax 340, Molecular Devices). After washing with PBS twice to remove suspended cells, the wells were stained with 0.1% (w/v) crystal violet in 10% ethanol and then treated with 30% acetic acid in dH2O, followed by detecting the absorbance at 595 nm (A595) with the microtiter plate reader to quantify the amount of biofilm formed on polystyrene surface.
An overnight culture of S. aureus SA113 was 200-fold diluted with TSBg, and a 200 μL aliquot of the diluted culture was seeded into each well of 96-well microtiter plates. Compounds purified from medicinal plants were added into each well at a designated concentration up to […]. At 6 hours after seeding, the amounts of biofilms formed in the wells were determined by crystal violet staining as described above. Cells treated with either distilled water or DMSO were used as a control. The amount of biofilm formation by the control group was set as 100%. Each experiment was repeated at least three times, with n=6 for each sample tested. The concentrations of compounds that inhibited 50% biofilm formation (IB50) were calculated based on logistic regression analysis results. Besides, the biofilm formation inhibition rate of a PGG-treated group was calculated using the following equation (1). Biofilm formation inhibition rate(%)=[(A−B)/A]×100 (1) wherein:
In the wells of 96-well microtiter plates, S. aureus SA113 cells were cultured in TSBg broth in the presence of either β-PGG or α-PGG at different amounts (0, 1 and 10 μM). After incubation at 37° C. for 6 hrs, the cell density was determined by measuring the absorbance at 578 nm (A578), and the amounts of biofilm were quantified by crystal violet staining, with the amount of biofilm formed by untreated bacterial cells being set as 100%. Each experiment was repeated three times, with n=6 for each sample tested.
To determine the effect(s) of (β-PGG upon bacterial growth and biofilm formation, β-PGG in various amounts (final concentration: 0, 1.56, 3.13, 6.25, 12.5, 25 and 50 μM) was added into the culture of S. aureus SA113 during seeding into the wells of polystyrene microtiter plates, followed by incubation at 37° C. for 6 hrs or 24 hrs. Cell growth was determined by measuring the absorbance at 578 nm, and the amount of biofilm formed on polystyrene surface was determined at 595 nm after crystal violet staining. In addition to polystyrene surface, the effect of β-PGG in inhibiting biofilm formation on polycarbonate surface was also examined according to the procedures as described in the preceding section entitled “Materials and methods.”

S. aureus SA113 [2] = experiment: CFU counting of cells adhered to polystyrene surface; type: cell-based, Staphylococcus aureus
Source text: To count the number of viable cells, the removed suspended cells were suspended in PBS by pipetting, and the resultant cell suspension was sonicated and serially diluted and subsequently plated on TSBg agar plate for colony forming unit (CFU) counting according to a method described earlier (S. Schlag et al. (2007), J. Bacteriol., 189:7911-7919).
In addition to biofilm formation, the number of cells attached to polystyrene surface and polycarbonate surface were also counted. Subsequent to the incubation of S. aureus SA113 cells with β-PGG (0 μM, 6.25 μM or 12.5 μM) for 20, 40 and 60 min, cells adhered to the polystyrene surface or polycarbonate surface were washed and suspended in PBS, followed by plating on TSBg agar for CFU counting. After incubation on polystyrene surface for 20, 40 and 60 min, the number of cells counted for the DMSO-treated control (i.e., 0 μM β-PGG) was 4.1×10^5, 6.4×10^5 and 7.8×10^5 CFU, respectively (FIG. 4, panel A, black bars).

S. aureus SA113 [3] = experiment: Biofilm formation on β-PGG/polyaniline-coated silicon rubber discs (safranin staining); type: cell-based; conditions: Staphylococcus aureus, polyaniline carrier, 24 hrs
Method: β-PGG (stock conc.: 8.89 μg/mL in DMSO) in various amounts was evenly mixed with a fixed amount of polyaniline (40 μL, 3 mg/mL in DMSO) so as to provide a 100 μL β-PGG/polyaniline mixture with a final β-PGG concentration of 0.47 μM, 0.94 μM, 1.89 μM, 3.78 μM, 4.73 μM or 5.67 μM. The resultant β-PGG/polyaniline mixture was coated on the inner surfaces of the wells of 96-well polystyrene microtiter plates in an amount of 100 μL per well. After β-PGG coating, the plates were dried in a vacuum chamber, followed by UV sterilization for 30 min. An overnight culture of S. aureus SA113 was 200-fold diluted with TSBg, and a 200 μL aliquot of the diluted culture was seeded into each well of the β-PGG-coated microtiter plates. After culturing at 37° C. for 24 hrs, the wells were washed twice with PBS, and then examined by safranin staining according to a method described earlier (Christine Heilmann et al. (1996), Infect. Immun., 64 (1):277-282), so as to quantify the amount of biofilm formed on the β-PGG-coated polystyrene surface.
Meanwhile, 6-mm diameter silicon rubber discs, which were cut from a sheet of 2-mm thick silicon rubber with a paper punch, were also coated with the resultant β-PGG mixture in an amount of 100 μL per disc. […] After incubation at 37° C. for 24 hrs, each silicon rubber disc was subjected to safranin staining, so as to quantify the amount of biofilm formed thereon.

[4] = test system: S. epidermidis RP62A (ATCC 35984); experiment: Growth (A578) and biofilm (A595) in polystyrene plates; type: cell-based, Staphylococcus epidermidis
Method: In addition to the above S. aureus strains, S. epidermidis ATCC 35547 and S. epidermidis RP62A (ATCC 35984) were also studied for comparison.
as §1

O=C(OC[C@H]1O[C@@H](OC(=O)c2cc(O)c(O)c(O)c2)[C@H](OC(=O)c2cc(O)c(O)c(O)c2)[C@@H](OC(=O)c2cc(O)c(O)c(O)c2)[C@@H]1OC(=O)c1cc(O)c(O)c(O)c1)c1cc(O)c(O)c(O)c1 [β-PGG, 1,2,3,4,6-penta-O-galloyl-β-D-glucopyranose]
viability of S. aureus SA113 cells (A578) ([1]; 1 μM and 10 μM, 6 hour incubation (anomer comparison)): did not affect the viability
reduction of biofilm formation ([1]; 1 μM, 6 hour incubation (anomer comparison)): 10%
killing of S. aureus SA113 ([1]; 10 μM): did not kill S. aureus SA113
reduction of biofilm formation ([1]; 10 μM, 6 hour incubation (anomer comparison)): 65%
Biofilm (%) ([1]; 10 μM): 5 ± 1%
Growth (%) ([1]; 10 μM): 109 ± 8%
Growth (A578) ([1]; 12.5 μM β-PGG, 6 hr, 0 μM: 0.68 ± 0.02): 0.65 ± 0.03
Biofilm (A595) ([1]; 12.5 μM β-PGG, 6 hr, 0 μM: 6.31 ± 0.34): 0.26 ± 0.28
reduction of biofilm formation ([1]; 100 μM, 6 hours): 98%
Biofilm (%) ([1]; 100 μM): 2 ± 0%
Growth (%) ([1]; 100 μM): 69 ± 5 %
amounts of biofilm on polystyrene surface after 24 hr incubation ([1]; 24 hrs): approximately equal to those observed after 6 hr incubation
inhibition at 6.25 µM ([1]; Staphylococcus aureus, ATCC35556, 6.25 μM, 6 hrs, read-out: inhibition of biofilm formation on polystyrene surface): 93%
inhibition at 10 µM ([1]; Staphylococcus aureus, ATCC35556, 10 μM, 6 hr incubation (screening)): 95%
inhibition at 12.5 µM ([1]; Staphylococcus aureus, ATCC35556, 12.5 μM, 6 hrs, read-out: inhibition of biofilm formation on polystyrene surface): 96%
inhibition at 25 µM ([1]; Staphylococcus aureus, ATCC35556, 25 μM, 6 hrs, read-out: inhibition of biofilm formation on polystyrene surface): 97%
inhibition at 100 µM ([1]; Staphylococcus aureus, ATCC35556, 100 μM, 6 hours): 31%
IC50 ([1]; Staphylococcus aureus, ATCC35556, 6 hours, logistic regression, read-out: IB50 (concentration that inhibited 50% biofilm formation)): 3.6 µM
viability of S. aureus SA113 ([1]; concentrations below 50 μM, 6 hours incubation): did not affect the viability; also recorded: did not kill S. aureus SA113 cells
Cell Growth (%) ([1]; growth compared to untreated control at the concentration of IB50): 100%
number of cells attached to polystyrene surface (S. aureus SA113 [2]; 6.25 μM, 20 min, DMSO control 4.1×10^5): 2.1×10^5 CFU
number of cells attached to polystyrene surface (S. aureus SA113 [2]; 6.25 μM, 40 min, DMSO control 6.4×10^5): 2.05×10^5 CFU
number of cells attached to polystyrene surface (S. aureus SA113 [2]; 6.25 μM, 60 min, DMSO control 7.8×10^5): 1.8×10^5 CFU
number of cells attached to polystyrene surface (S. aureus SA113 [2]; 12.5 μM, 20 min, DMSO control 4.1×10^5): 3.7×10^4 CFU
number of cells attached to polystyrene surface (S. aureus SA113 [2]; 12.5 μM, 40 min, DMSO control 6.4×10^5): 2.3×10^4 CFU
number of cells attached to polystyrene surface (S. aureus SA113 [2]; 12.5 μM, 60 min, DMSO control 7.8×10^5): 1.7×10^4 CFU
inhibition at 1.9 µM (S. aureus SA113 [3]; coating with 1.9 μM β-PGG): 62%
inhibition at 5.7 µM (S. aureus SA113 [3]; coating with 5.7 μM β-PGG): 85%
reduction of biofilm formation ([4]; 12.5 μM): 35%
Growth (A578) ([4]; 12.5 μM β-PGG, 6 hr, 0 μM: 0.57 ± 0.09): 0.56 ± 0.09
Biofilm (A595) ([4]; 12.5 μM β-PGG, 6 hr, 0 μM: 6.43 ± 0.04): 4.18 ± 0.54

Source: patent US9181290B2, “Inhibition of biofilm formation by 1,2,3,4,6-penta-O-galloyl-D-glucopyranose” (CHANG GUNG UNIVERSITY, priority 2011, dated 2015)
